Results from PubChem BioAssay (NCI).
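Following 48 hours of exposure in 96-well plates, responses at five concentrations were used to interpolate endpoints linearly. The concentration for full growth arrest is given as TGI.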

Tests used:
Experiment in all cases: inhibition of tumour cell growth, NCI panel, 48 h
HS 578T breast = system: HS 578T breast
SNB-19 CNS = system: SNB-19 CNS
CCRF-CEM leukemia = system: CCRF-CEM leukemia
UACC-257 melanoma = system: UACC-257 melanoma
SW-620 colon = system: SW-620 colon
COLO 205 colon = system: COLO 205 colon
NCI-H460 lung = system: NCI-H460 lung
786-0 renal = system: 786-0 renal
MCF7 breast = system: MCF7 breast
NCI-H522 lung = system: NCI-H522 lung
SNB-75 CNS = system: SNB-75 CNS
A549 NSCLC = system: A549 NSCLC
IGROV1 ovarian = system: IGROV1 ovarian
RXF 393 renal = system: RXF 393 renal
MDA-MB-435 = system: MDA-MB-435
NCI-H23 lung = system: NCI-H23 lung
HOP-62 NSCLC = system: HOP-62 NSCLC
KM12 colon = system: KM12 colon
CAKI-1 renal = system: CAKI-1 renal

Structure (SMILES)	TGI (HS 578T breast)	TGI (SNB-19 CNS)	TGI (CCRF-CEM leukemia)	TGI (UACC-257 melanoma)	TGI (SW-620 colon)	TGI (COLO 205 colon)	TGI (NCI-H460 lung)	TGI (786-0 renal)	TGI (MCF7 breast)	TGI (NCI-H522 lung)	TGI (SNB-75 CNS)	TGI (A549 NSCLC)	TGI (IGROV1 ovarian)	TGI (RXF 393 renal)	TGI (MDA-MB-435)	TGI (NCI-H23 lung)	TGI (HOP-62 NSCLC)	TGI (KM12 colon)	TGI (CAKI-1 renal)
N#Cc1c(O)c(N=Nc2ccccc2F)c(=O)n2c1[nH]c1ccccc12	65.4 µM	> 100 µM	> 100 µM	> 100 µM	> 100 µM	> 100 µM	> 100 µM	> 100 µM	> 100 µM	94.9 µM	> 100 µM	> 100 µM	> 100 µM	> 100 µM	> 100 µM	> 100 µM	> 100 µM	–	–
COC1CC(OC2C(C)OC(OC3C(C)OC(OC4C(O)CC(O[C@H]5CC[C@@]6(C)C(=CC[C@]7(O)[C@@H]6C[C@@H](OC(=O)/C=C/c6ccccc6)[C@@]6(C)[C@]7(O)CC[C@@]6(O)C(C)=O)C5)OC4C)CC3OC)CC2OC)OC(C)C1O (stereo partly drawn)	> 6.25 µM	> 6.25 µM	> 6.25 µM	> 6.25 µM	> 6.25 µM	> 6.25 µM	–	> 6.25 µM	> 6.25 µM	> 6.25 µM	> 6.25 µM	> 6.25 µM	> 6.25 µM	–	> 6.25 µM	> 6.25 µM	> 6.25 µM	> 6.25 µM	> 6.25 µM
O=C1CC(O)c2c(Br)sc(Br)c21 (stereo not drawn)	55.9 µM	34.9 µM	–	17.4 µM	4.53 µM	31 µM	34.8 µM	14.8 µM	15.5 µM	29.4 µM	29.8 µM	43.4 µM	31.9 µM	5.51 µM	18.5 µM	57.7 µM	24.5 µM	20.8 µM	4.24 µM
Cn1nc2ccc3nccc(N4CCN(CCO)CC4)c3c2n1	> 100 µM	> 100 µM	> 100 µM	> 100 µM	> 100 µM	> 100 µM	> 100 µM	> 100 µM	> 100 µM	> 100 µM	> 100 µM	> 100 µM	> 100 µM	> 100 µM	> 100 µM	> 100 µM	> 100 µM	> 100 µM	–
O=C(NC(CS)C(=O)O)c1cccc2c(=O)c3ccccc3[nH]c12 (stereo not drawn)	> 100 µM	> 100 µM	–	–	> 100 µM	> 100 µM	–	> 100 µM	> 100 µM	> 100 µM	> 100 µM	> 100 µM	> 100 µM	–	> 100 µM	> 100 µM	> 100 µM	> 100 µM	–
CCCCCCCCCc1cc(-c2ccc(C=O)s2)sc1-c1ccc(C=O)s1	46.5 µM	> 87.1 µM	8.51 µM	30.8 µM	> 100 µM	> 31.6 µM	> 83.2 µM	> 85.2 µM	> 54.3 µM	45.6 µM	> 91.1 µM	> 100 µM	56.3 µM	35.4 µM	> 100 µM	82.5 µM	74.8 µM	> 100 µM	–
c1ccc(N=C(Nc2ccccc2)N2CCCCC2)cc1	> 100 µM	> 100 µM	> 100 µM	68.9 µM	> 100 µM	> 100 µM	> 100 µM	> 100 µM	> 100 µM	> 100 µM	> 100 µM	> 100 µM	> 100 µM	–	> 100 µM	> 100 µM	> 100 µM	> 100 µM	> 100 µM
CC(C)(C)c1cc(C2NCCO2)cc(C(C)(C)C)c1O (stereo not drawn)	> 100 µM	–	> 100 µM	> 100 µM	> 100 µM	> 100 µM	> 100 µM	> 100 µM	> 100 µM	> 100 µM	30.6 µM	–	> 100 µM	37.8 µM	> 100 µM	> 100 µM	> 100 µM	> 100 µM	> 100 µM
Cc1ccc2c(=O)c3cccc(CC(=O)O)c3[nH]c2c1C	> 100 µM	> 100 µM	> 100 µM	> 100 µM	> 100 µM	> 100 µM	> 100 µM	> 100 µM	> 100 µM	> 100 µM	–	> 100 µM	> 100 µM	–	> 100 µM	> 100 µM	> 100 µM	> 100 µM	> 100 µM
OC1(c2ccccc2)CC2CCC(C1)N2CCCC1(c2ccc(F)cc2)OCCO1 (stereo not drawn)	> 100 µM	–	> 100 µM	73.5 µM	> 100 µM	> 100 µM	–	32.4 µM	> 100 µM	> 100 µM	> 100 µM	> 100 µM	> 100 µM	> 100 µM	> 100 µM	> 100 µM	> 100 µM	–	> 100 µM
O=C1C=C(Sc2ccccc2)c2nccc3c2c1nc1ccccc13	46.5 µM	> 100 µM	12.3 µM	30.6 µM	29.7 µM	31.5 µM	84.5 µM	49.6 µM	28.7 µM	15.8 µM	> 100 µM	> 100 µM	23.9 µM	–	31.2 µM	73.2 µM	32.2 µM	51.6 µM	> 100 µM
